# Laboratory results published in patent publication US6407288B1, “Naphthylsalicylanilides as antimicrobial and antiinflammatory agents” (The Research Foundation of State University of New York, priority 2000, dated 2002).
# Legend:
# [1] = tested on: S. mutans; test: MIC microdilution, gram positive; type: cell-based, Streptococcus mutans; conditions: Table 1, Gram Positive
# Description: (§1) The MIC's for the compounds were determined by a modified microdilution tube dilution method described in “Methods for Dilution Antimicrobial Susceptibility Tests for Bacteria that Grow Aerobically” (National Committee for Clinical Laboratory Standards Approved Standards, 1997, NCCLS document M7-A4). In general the modifications were made because of the unique growth requirements for the fastidious oral organisms and for those bacteria that require anaerobic conditions. Reference is also made to “Methods for Antimicrobial Susceptibility of Anaerobic Bacteria” (National Committee for Clinical Laboratory Standards Approved Standards, 1997, NCCLS document M11-A4). Briefly, the methods were as follows. Cultures were grown for 18-24hrs (aerobic bacteria) or 48-72 hrs (anaerobic bacteria) in the appropriate medium. For aerobic bacteria full strength brain heart infusion medium (BHI, Difco) was used. For anaerobic bacteria, half strength BHI (18.5 g/L) was supplemented by adding yeast extract (10 g/L), hemin (0.29 mL of a stock solution containing 0.1 g/200 mL dH2O) and menadione (15 mL of a stock solution containing 0.15 mL in 30 mL 95% EtOH) was used. Initial cultures were diluted to approximately 1×10^8 CFU/mL for use as an inoculum. Each assay received 10 μL of the inoculum. The drugs were prepared from a stock solution contained in dimethyl sulfoxide (DMSO) and diluted into the culture medium. Final concentrations of the drugs ranged from 50 to 0.05 μg/assay. The tests were run in duplicate and were incubated appropriately with regard to oxygen requirements for 24 to 48 hrs as required. Anaerobic incubation was an atmosphere of 5% CO2, 10% H2, with the balance N2. The lowest concentration of an antimicrobial agent at which no visible growth is noted was referred to as the MIC.
# [2] = tested on: S. sanguis; test: MIC microdilution, gram positive; type: cell-based, Streptococcus sanguis; conditions: Table 1, Gram Positive
# Description: as §1
# [3] = tested on: S.salivarius; test: MIC microdilution, gram positive; type: cell-based, Streptococcus salivarius; conditions: Table 1, Gram Positive
# Description: as §1
# [4] = tested on: P. acnes 11828; test: MIC microdilution, gram positive; type: cell-based, Propionibacterium acnes; conditions: Table 1, Gram Positive
# Description: as §1
# [5] = tested on: P. acnes 6922; test: MIC microdilution, gram positive; type: cell-based, Propionibacterium acnes; conditions: Table 1, Gram Positive
# Description: as §1
# [6] = tested on: A. viscosus; test: MIC microdilution, gram positive; type: cell-based, Actinomyces viscosus; conditions: Table 2, Gram Positive
# Description: as §1
# [7] = tested on: S. aureus; test: MIC microdilution, gram positive; type: cell-based, Staphlococcus aureus
# Description: (§2) The MIC's for the compounds were determined by a modified microdilution tube dilution method described in “Methods for Dilution Antimicrobial Susceptibility Tests for Bacteria that Grow Aerobically” (National Committee for Clinical Laboratory Standards Approved Standards, 1997, NCCLS document M7-A4). In general the modifications were made because of the unique growth requirements for the fastidious oral organisms and for those bacteria that require anaerobic conditions. Reference is also made to “Methods for Antimicrobial Susceptibility of Anaerobic Bacteria” (National Committee for Clinical Laboratory Standards Approved Standards, 1997, NCCLS document M11-A4).
# (§3) Briefly, the methods were as follows. Cultures were grown for 18-24hrs (aerobic bacteria) or 48-72 hrs (anaerobic bacteria) in the appropriate medium. For aerobic bacteria full strength brain heart infusion medium (BHI, Difco) was used. For anaerobic bacteria, half strength BHI (18.5 g/L) was supplemented by adding yeast extract (10 g/L), hemin (0.29 mL of a stock solution containing 0.1 g/200 mL dH2O) and menadione (15 mL of a stock solution containing 0.15 mL in 30 mL 95% EtOH) was used. Initial cultures were diluted to approximately 1×10^8 CFU/mL for use as an inoculum. Each assay received 10 μL of the inoculum. The drugs were prepared from a stock solution contained in dimethyl sulfoxide (DMSO) and diluted into the culture medium. Final concentrations of the drugs ranged from 50 to 0.05 μg/assay. The tests were run in duplicate and were incubated appropriately with regard to oxygen requirements for 24 to 48 hrs as required. Anaerobic incubation was an atmosphere of 5% CO2, 10% H2, with the balance N2. The lowest concentration of an antimicrobial agent at which no visible growth is noted was referred to as the MIC.
# (§4) This embodiment describes the sensitivity of various staphylococcus strains to the compounds of the present invention. The staphylococcus species R is a strain 00-045-1209 from the Children's Hospital in Buffalo. It was isolated from the peritoneal cavity (fluid culture) of an individual. It was coagulase negative. The sensitivity of this strain was tested agaisnt several known antibiotics.
# [8] = tested on: Lact 7496; test: MIC microdilution, gram positive; type: cell-based, Lactobacillus rhamnosus (casei); conditions: Table 2, Gram Positive
# Description: as §1
# [9] = tested on: M. luteus; test: MIC microdilution, gram positive; type: cell-based, Micrococcus luteus; conditions: Table 2, Gram Positive
# Description: as §1
# [10] = tested on: Fuso. 25586; test: MIC microdilution, gram negative; type: cell-based, Fusobacterium nucleatum
# Description: (§5) The MIC's for the compounds were determined by a modified microdilution tube dilution method described in “Methods for Dilution Antimicrobial Susceptibility Tests for Bacteria that Grow Aerobically” (National Committee for Clinical Laboratory Standards Approved Standards, 1997, NCCLS document M7-A4). In general the modifications were made because of the unique growth requirements for the fastidious oral organisms and for those bacteria that require anaerobic conditions. Reference is also made to “Methods for Antimicrobial Susceptibility of Anaerobic Bacteria” (National Committee for Clinical Laboratory Standards Approved Standards, 1997, NCCLS document M11-A4). Briefly, the methods were as follows. Cultures were grown for 18-24hrs (aerobic bacteria) or 48-72 hrs (anaerobic bacteria) in the appropriate medium. For aerobic bacteria full strength brain heart infusion medium (BHI, Difco) was used. For anaerobic bacteria, half strength BHI (18.5 g/L) was supplemented by adding yeast extract (10 g/L), hemin (0.29 mL of a stock solution containing 0.1 g/200 mL dH2O) and menadione (15 mL of a stock solution containing 0.15 mL in 30 mL 95% EtOH) was used. Initial cultures were diluted to approximately 1×10^8 CFU/mL for use as an inoculum. Each assay received 10 μL of the inoculum. The drugs were prepared from a stock solution contained in dimethyl sulfoxide (DMSO) and diluted into the culture medium. Final concentrations of the drugs ranged from 50 to 0.05 μg/assay. The tests were run in duplicate and were incubated appropriately with regard to oxygen requirements for 24 to 48 hrs as required. Anaerobic incubation was an atmosphere of 5% CO2, 10% H2, with the balance N2. The lowest concentration of an antimicrobial agent at which no visible growth is noted was referred to as the MIC. […] The method used was the same as described in Example 1.
# [11] = tested on: Aa Y4; test: MIC microdilution, gram negative; type: cell-based, Actinobacillus actinomycetemcomitans
# Description: as §5
# [12] = tested on: P. ging 381; test: MIC microdilution, gram negative; type: cell-based, Porphyromonas gingivalis
# Description: as §5
# [13] = tested on: Pg 53977; test: MIC microdilution, gram negative; type: cell-based, Porphyromonas gingivalis
# Description: as §5
# [14] = tested on: B. fragilis; test: MIC microdilution, gram negative; type: cell-based, Bacteroides fraglis
# Description: as §5
# [15] = tested on: Str. pn. R; test: Mean Streptococcus MIC; type: cell-based; conditions: Table 5, mean; strain resistant to penicillin and erythromycin
# Description: as §2, §3
# (§6) This embodiment illustrates the efficacy of the compounds of the present invention against Streptococcus strains. One of the strains, Str.pn.R was obtained from the Children's Hospital in Buffalo (strain 00-041-0614). […] The sensitivity of this strain was tested against several known antibiotics.
# [16] = tested on: Str. pn; test: Mean Streptococcus MIC; type: cell-based; conditions: Table 5, mean
# Description: as §2, §3, §6
# [17] = tested on: Str. pyo; test: Mean Streptococcus MIC; type: cell-based; conditions: Table 5, mean
# Description: as §2, §3, §6
# [18] = tested on: S. species R; test: Staphylococcus MIC; type: cell-based, staphylococcus species R; conditions: second Table 5 (Example 5); strain 00-045-1209
# Description: as §2, §3, §4
# [19] = Table 3 printed a second time, Gram Negative
SMILES,MIC S. mutans [1],MIC S. sanguis [2] [micrograms/ml],MIC S.salivarius [3],MIC P. acnes 11828 [4] [micrograms/ml],MIC P. acnes 6922 [5] [micrograms/ml],MIC A. viscosus [6] [micrograms/ml],"MIC S. aureus ([7]; Table 2, Gram Positive)",MIC S. aureus ([7]; second Table 5 (Example 5)),MIC Lact 7496 [8] [micrograms/ml],MIC M. luteus [9] [micrograms/ml],"MIC Fuso. 25586 ([10]; Table 3, Gram Negative)","MIC Fuso. 25586 [10, 19]","MIC Aa Y4 ([11]; Table 3, Gram Negative)","MIC Aa Y4 [11, 19]","MIC P. ging 381 ([12]; Table 3, Gram Negative) [micrograms/ml]","MIC P. ging 381 [12, 19] [micrograms/ml]","MIC Pg 53977 ([13]; Table 3, Gram Negative) [micrograms/ml]","MIC Pg 53977 [13, 19] [micrograms/ml]","MIC B. fragilis ([14]; Table 3, Gram Negative)","MIC B. fragilis [14, 19]",further results
N#Cc1cccc(NC(=O)c2cc(C(=O)c3ccc4ccccc4c3)ccc2O)c1 [NA2mC],6.3 micrograms/ml,6.3,50 micrograms/ml,12.5,6.3,1.6,NE (NE indicates that the drug was not effective at a concentration >50 micrograms/ml),NE (NE indicates that the drug was not effective at a concentration >50 micrograms/ml),12.5,3.1,NE (NE indicates that the drug was not effective at a concentration >50 micrograms/ml),NE (NE indicates that the drug was not effective at a concentration >50 micrograms/ml),NE (NE indicates that the drug was not effective at a concentration >50 micrograms/ml),NE (NE indicates that the drug was not effective at a concentration >50 micrograms/ml),0.8,0.8,0.8,0.8,3.1 micrograms/ml,3.1 micrograms/ml,Mean Streptococcus MIC values Str. pn. R [15]: 6.25 micrograms/ml; Mean Streptococcus MIC values Str. pn [16]: 0.91 micrograms/ml; Mean Streptococcus MIC values Str. pyo [17]: NE (NE indicates that the drug was not effective at a concentration >50 micrograms/ml); MIC S. species R [18]: NE (NE indicates that the drug was not effective at a concentration >50 micrograms/ml)
"CCCCCCCCCCCCS(=O)(=O)c1ccc(O)c(C(=O)Nc2cccc(C(F)(F)F)c2)c1 [TMF-12, reference compound]",NE (NE indicates that the drug was not effective at a concentration >50 micrograms/ml),12.5,NE (NE indicates that the drug was not effective at a concentration >50 micrograms/ml),0.2,0.4,1.6,NE (NE indicates that the drug was not effective at a concentration >50 micrograms/ml),NE (NE indicates that the drug was not effective at a concentration >50 micrograms/ml),3.1,0.8,NE (NE indicates that the drug was not effective at a concentration >50 micrograms/ml),NE (NE indicates that the drug was not effective at a concentration >50 micrograms/ml),NE (NE indicates that the drug was not effective at a concentration >50 micrograms/ml),NE (NE indicates that the drug was not effective at a concentration >50 micrograms/ml),0.4,0.4,0.4,0.4,NE (NE indicates that the drug was not effective at a concentration >50 micrograms/ml),NE (NE indicates that the drug was not effective at a concentration >50 micrograms/ml),Mean Streptococcus MIC values Str. pn. R [15]: 0.78 micrograms/ml; Mean Streptococcus MIC values Str. pn [16]: 0.65 micrograms/ml; Mean Streptococcus MIC values Str. pyo [17]: 0.47 micrograms/ml; MIC S. species R [18]: NE (NE indicates that the drug was not effective at a concentration >50 micrograms/ml)
